{"source": "patent US20060014722A1", "about": "“Per (3,6-anhydro) cyclodextrin derivatives, their preparation and use thereof for separating ions, in particular chromium and manganese anions” (priority 2002, published 2006)", "key": {"[1]": {"test": "Ion-exchange plate chromatography (retardation factor Rf), complexing of manganese anions", "assay_type": "binding", "details": "Polygram Ionex 25-SA-Na plates charged with the ion, developed four times in water", "text": "(§1) The use of thin layer chromatography plates charged with ions allows rapid evaluation of the complexing of these ions by the species to be evaluated; in the present case, plates of the Polygram Ionex 25-SA-Na type (Macherey-Nagel, ref.: 80613) charged with various counterions to be evaluated.\n(§2) Thus, chromatography plates are used onto which are respectively bound the ions acetyl COO^− (designated Ac in FIG. 1), PO4^3−, NO3^−, Cr2O7^2−, Cl^−, SO4^2^−, HCO3^−, BO3^−, WO4^2−, MnO4^−, CrO4^2−, AsO4^2−, AlO2^−.\n(§3) In each test, there is introduced onto the plate the compound of Example 1 which will be retained on the plate if it complexes the ions. […] The lower the Rf, for a given ion, the more the ion in question will form a complex with the cyclodextrin compound."}, "Solubility in water": {"test": "Solubility in water", "assay_type": "physicochemical"}, "[2]": {"test": "Ion-exchange plate chromatography (retardation factor Rf), complexing of chromium anions", "assay_type": "binding", "details": "Polygram Ionex 25-SA-Na plates charged with the ion, developed four times in water", "text": "as §1, §2, §3"}, "[3]": {"test": "Ion-exchange plate chromatography, complexing of cations", "assay_type": "binding", "details": "18 cations tested on ion-exchange plates", "text": "as §1, §3\nLikewise, tests were carried out to see whether the derivatives according to the invention were capable of complexing cations. Tests were carried out with the following ions:\nNa^+, K^+, Cs^+,NH4^+,Ca^2+,Ba^2+, Al^3+, Fe^3+, Co^2+, Ni^2+, Cu^2+, Ag^2+, Zn^2+, Hg^2+, Pb^2+, La^3+, Gd^3+, UO2^2+."}}}
{"substance": "per(3,6-anhydro)cyclomaltohexaose per-2-O-ethylcarbamate [Example 1]", "values": [{"measurement": "complexing rate for manganese ions (Rf, FIG. 1)", "setting": "[1]", "result": "high complexing rate"}, {"measurement": "solubility in water", "setting": "Solubility in water", "result": "low solubility in water"}, {"measurement": "complexing rate for chromium ions (Rf, FIG. 1)", "setting": "[2]", "result": "high complexing rate"}, {"measurement": "complexing of cations (Rf, FIG. 2)", "setting": "[3]", "result": "none of these cations efficiently forms a complex"}]}
